Measured values from patent US9518038B2, “Condensation product of theanine derivative and carboxylic acid coumarin derivative, its intermediate, preparation method and use thereof” (SHANDONG YINGDONG YINGHAO BIOTECHNOLOGY, INC., priority 2012, dated 2016).

Columns and labels:
[1] = system: human liver cancer cells HepG2; assay: MTT growth inhibition, HepG2 cells; format: cell-based; settings: 72 h after treatment, read-out: Drug concentration (IC50) at which 50% cancer cells survived
From the text: (§1) Cell lines and cell culture: human lung cancer cells A549 and H460, human breast cancer cells MCF-7 and MDA-MB-231, human gastric cancer cells BGC-823, human prostate cancer cells PC-3, human chronic leukemia cells K562, human lymphoma cells U937, human liver cancer cells SMMC7721 and HepG2, human colon cancer cells HT29, human pancreatic cancer cells PANC-1 and BxPC3, human cervical cancer Hela cell lines, human brain tumor cells Daoy, human neuroma cells D54 and human oral epidermoid cancer cells KBV200 line with strong drug resistance, mouse melanoma cells B16, and highly metastatic Lewis lung cancer cell lines were purchased from American Type Culture Collection of the U.S. These cells were cultured with DMEM and RPMI-1640 culture solutions separately.
(§2) The procedure was as follows:
(§3) (1) 0.25% trypsin was used to digest cancer cells in a logarithmic growth phase to prepare a single-cell suspension, the concentration of cells was adjusted to 5×10^4/mL, and the adjusted suspension was inoculated into a 96-well culture plate with 100 μl per well;
(§4) (2) The culture plate was transferred into a 37° C. incubator with a saturated humidity and 5% of CO2 and cultured for 24 h; the compounds and the intermediates thereof obtained in embodiments 1-7 and the compound as represented by formula (IIIa) or the positive control anti-cancer drug with the concentration of 1-1000 μM/L were added to enable the final concentration to be 0.1-1500 μM/L. Control wells (only added with 200 μl of cell suspension) and drug-free blank control wells (containing the solvent of 0.01% DMSO) were set, each group included 8 wells, and the plate was placed into the 37° C. incubator with saturated humidity and 5% of CO2 for culturing;
(§5) (3) The 96-well plate was taken out at 48 h and 72 h after dosing, the original culture medium was carefully removed by suction, 100 μl of serum-free DMEM culture medium and 10 μl of MTT (5 mg/mL) solution were added in each well. The plate was continuously cultured for another 4 h and then the culture was terminated;
(§6) (4) The supernatant in the wells was carefully removed by suction, each well was added with 150 μl of DMSO and shaked at room temperature for 10-15 min to fully dissolve crystals.
(§7) (5) Colorimetric analysis: the wavelength was selected as 570 nm, the light absorbance (A value) of each well was determined on the microplate reader and the results were recorded; the experiment was repeated for three times;
(§8) (6) the experimental results were calculated according to the following formula: relative survival rate=(A value of each experimental group/A value of cell control group)×100%
(§9) Calculation of median-effect concentration (IC50, namely the drug concentration at which the inhibition rate is 50%, also known as half inhibitory concentration):
(§10) IC50 of the detected component was calculated by using a regression equation.

[2] = system: highly metastatic Lewis lung cancer cell lines; assay: MTT growth inhibition, LLC cells; format: cell-based, mouse; settings: Mus musculus, Lewis lung carcinoma, 72 h after treatment, read-out: Drug concentration (IC50) at which 50% cancer cells survived
From the text: as §1, §2, §3, §4, §5, §6, §7, §8, §9, §10

[3] = system: human brain tumor cells Daoy; assay: MTT growth inhibition, Daoy cells; format: cell-based; settings: Homo sapiens, 72 h after treatment, read-out: Drug concentration (IC50) at which 50% cancer cells survived
From the text: as §1, §2, §3, §4, §5, §6, §7, §8, §9, §10

[4] = system: human lung cancer cells H460; assay: MTT growth inhibition, H460 cells; format: cell-based; settings: NCI-H460, 72 h after treatment, read-out: Drug concentration (IC50) at which 50% cancer cells survived
From the text: as §1, §2, §3, §4, §5, §6, §7, §8, §9, §10

[5] = system: Caski human cervical cancer cells; assay: MTT growth inhibition, Caski cells; format: cell-based; settings: Ca-Ski, 72 h after treatment, read-out: Drug concentration (IC50) at which 50% cancer cells survived
[6] = system: human breast cancer cells MCF-7 xenograft; assay: In-vivo growth of MCF-7 xenografts in nude mice; parameters: species or system BALB/c nude mice; settings: Mus musculus, MCF7, ip, vs DMSO solvent control, read-out: Curative effect (inhibition rate %) of tumor weight; for inhibition in vivo at 60 mg/kg: 60 mg/kg intraperitoneal once a day; for inhibition in vivo at 90 mg/kg: 90 mg/kg intraperitoneal once a day
Method: RPMI1640 and DMEM culture solutions: Hyclone Company; inactivated fetal bovine serum: Hyclone Company, preserved at −20° C.; trypsin: Amersco Company; and 0.4% trypan blue: Sigma Company;
(3) Observation of growth of tumors in nude mice: the activities (including food intake, traits of urine and stool, mental state and the like) of the nude mice and the tumor growth time and growth situation of the transplanted tumors were observed every day, the body weight and the size of the tumors were measured once every 2-3 days. The long diameter a and the short diameter b (mm) of each tumor were measured by a vernier caliper to calculate the volume, wherein the volume V=π1/2·ab^2 (mm^3);
(4) sacrifice of animals: the mice were anesthetized and photoed after treatment experiments; the nude mice were sacrificed by breaking neck, the tumor tissues were stripped under sterile conditions and the weight of the tumors was weighed; and the effects of the drugs on pathology and toxicity of the various organs and tissues were detected.

Akt = assay: Western Blotting, Akt level; format: cell-based; settings: human liver cancer cells, Lewis lung cancer cells and other cancer cell lines and tumor tissues, read-out: Effective concentration (IC50) for inhibition of Akt
From the text: (§11) Antibodies: primary antibodies of VEGFR, EGFR, c-Met, K-Ras, H-Ras, Akt, NF-κB, Cyclin D1, ER-alpha, Dvl-1, Dvl-2, Dvl-3, MMP-9, MMP2, β-catenin, Bcl-2, Bax, p53, p21, E-cadherin and Caspase3 protein, purchased from American Cell Signaling Technology Company and Santa Cruz Technology Company; and H3 acetylation, H4 acetylation and HDAC (HDAC3, HDAC4 and the like) Antibody Sample Kits, purchased from Cell Signaling Technology Company of the U.S.
(§12) (3) polyacrylamide gel electrophoresis (SDS-PAGE): an equal amount of protein lysate sample was used to separate protein, film transfer, and blocking, treated with appropriate primary antibodies and secondary antibodies in sequence, and the film was washed, then the color was developed with ECL kit, and a blot protein band was detected by exposure of an X-ray film; and a Gel-Pro Analyzer was used for quantitative analysis of gray degree, optical density value of the control group and the drug treatment group in various concentration were respectively compared with that of internal reference, the obtained ratios were respectively compared with the control group, and the protein expression level was semi-quantified.

Nuclear β-catenin = assay: Western Blotting, nuclear β-catenin level; format: cell-based; settings: human liver cancer cells, Lewis lung cancer cells and other cancer cell lines and tumor tissues, read-out: Effective concentration (IC50) for inhibition of Nuclear β-catenin
From the text: as §11, §12

HDAC3 = assay: Western Blotting, HDAC3 level; format: cell-based; settings: human liver cancer cells, Lewis lung cancer cells and other cancer cell lines and tumor tissues, read-out: Effective concentration (IC50) for inhibition of HDAC3
From the text: as §11, §12

HDAC4 = HDAC4 enzyme activity in nuclear extracts of human tumor xenografts of treated mice; settings: second value of the pair HDAC3 and HDAC4, SAHA 25 mg/kg
Method: For the detection of the effect of the drugs on enzyme activity of EZH2 and HDAC of in-vivo tumors, the tumors were separately excised after 6 h of medication, total proteins and nucleoproteins were extracted separately to detect and analyze the activity of the enzyme.
(2) 50 μl of diluted sample solution was added into each reaction well, the plate was sealed with a plate-sealing film and reacted at room temperature for 30 min;
(3) the plate-sealing film was carefully peeled off, the liquid was removed, dried, 150 μl of washing liquid was added into each well, stood for 30 s, then the liquid was removed, repeated twice, and dried;
(4) 2 μl of HDAC enzyme or tumor tissue nuclear extracts was respectively uniformly mixed with 28 μl of diluted sample solution, added into the wells, the plate was sealed with the plate-sealing film and reacted at 37° C. for 60 min;
(5) the plate was washed for three times, wherein the operation was the same as that in (3); and a diluted antibody capture working solution was added into each reaction well according to 50 μl/well and reacted on a shaking bed at room temperature for 60 min;
(6) the plate was washed for four times, wherein the operation was the same as that in (3);
(7) a diluted antibody detection working solution was added into each reaction well according to 50 μl/well and reacted at room temperature for 30 min;
(8) the plate was washed for five times, wherein the operation was the same as that in (3);
a color developing agent was added according to 100 μl/well, and performed dark development for 2-10 min;
(9) 50 μl of stop solution was added into each well for stopping the reaction when the color in the well with a standard product turned blue with medium intensity, the color immediately turned yellow from blue after the addition;
(10) the light absorbance (OD value) of each well was measured in sequence at the wavelength of 450 nm; wherein the measurement should be performed within 15 min after addition of the stop solution; and

Row | SMILES | IC50 [1] [µM] | IC50 [2] [µM] | IC50 [3] [µM] | IC50 [4] [µM] | IC50 [5] [µM] | inhibition in vivo at 60 mg/kg [6] [%] | inhibition in vivo at 90 mg/kg [6] [%] | IC50 (Akt) [µM] | IC50 (Nuclear β-catenin) [µM] | IC50 (HDAC3) [µM] | decrease of HDAC4 enzyme activity/inhibition rate (HDAC4; A549 tumor grown in vivo) | decrease of HDAC4 enzyme activity/inhibition rate (HDAC4; MCF7 tumor grown in vivo) | decrease of HDAC4 enzyme activity/inhibition rate (HDAC4; MDA-MB231 tumor grown in vivo) | decrease of HDAC4 enzyme activity/inhibition rate (HDAC4; SMMC7721 tumor grown in vivo)
1 | CCNC(=O)CC[C@H](N)C(=O)OC [Compound IIa, theanine methyl ester] | 600 | 100 | 400 | 500 ± 40 | 320 | 39.8 | 41.3 | – | – | – | – | – | – | –
2 | CCNC(=O)CCC(NC(=O)c1cc2cc([N+](=O)[O-])ccc2oc1=O)C(=O)OCC (stereo in doubt) [Compound If, (R)-2-(6-nitro-2-oxo-2H-benzopyran-3-carboxamido)-5-ethylamino-5-oxo-pentanoic acid ethyl ester] | 130 | 100 | 129 | 100 | 120 | 68.6 | 72.6 | < 90 | < 90 | < 55 | 75%*(A549)- | 69%*(MCF7) | 67%*(MDA-MB231) | 68%*(SMMC7721);
3 | CCNC(=O)CC[C@@H](NC(=O)c1cc2cc(Br)cc(Br)c2oc1=O)C(=O)OCC [Compound Ih, (R)-2-(6,8-dibromo-2-oxo-2H-benzopyran-3-carboxamido)-5-ethylamino-5-oxo-pentanoic ethyl ester] | 56 | 53 | 121 | 109 | 53 | 58.9 | 75.9 | < 70 | < 100 | < 65 | 59%*(A549)- | 66%*(MCF7) | 64%*(MDA-MB231) | 62%*(SMMC7721);
4 | CCNC(=O)CCC(NC(=O)c1cc2ccccc2oc1=O)C(=O)OC (centres unmarked) [Compound Ia, methyl 5-ethylamino-5-oxo-2-(2-oxo-2H-benzopyran-3-carboxamido)pentanoate] | 250 | 185 | 250 | 230 | 210 | 50.1 | 61.3 | < 125 | < 120 | < 75 | – | – | – | 58%*(SMMC7721)
5 | CCNC(=O)CC[C@@H](NC(=O)c1cc2cc(Cl)ccc2oc1=O)C(=O)OCC [Compound Ic, (R)-2-(6-CI-2-oxo-2H-benzopyran-3-carboxamido)-5-ethylamino-5-oxo-pentanoic acid ethyl ester] | 93 | 131 | 86 | 106 ± 50 | 86 | 58.6 | 68.8 | < 100 | < 100 | < 65 | 73%*(A549)- | 63%*(MCF7) | 65%*(MDA-MB231) | 67%*(SMMC-7721);
6 | CCNC(=O)CCC(NC(=O)c1cc2ccccc2oc1=O)C(=O)OCC (centres unmarked) [Compound Ib, ethyl 5-ethylamino-5-oxo-2-(2-oxo-2H-benzopyran-3-carboxamido)pentanoate] | 225 | 115 | 135 | 113 | 116 | 52.6 | 63.8 | < 120 | < 120 | < 70 | 62%*(A549)- | – | – | 61%*(SMMC-7721)
7 | CCNC(=O)CCC(NC(=O)c1cc2cc(F)ccc2oc1=O)C(=O)OCC (stereo in doubt) [Compound Ie, (R)-2-(6-F-2-oxo-2H-benzopyran-3-carboxamido)-5-ethylamino-5-oxo-pentanoic acid ethyl ester] | 230 | 110 | 210 | 100 | 230 | 66.8 | 69.8 | < 160 | < 65 | < 55 | 72%*(A549)- | 67%*(MCF7) | 62%*(MDA-MB231) | 65%*(SMMC7721);
8 | CCNC(=O)CC[C@H](N)C(=O)OCC [Compound IIb, theanine ethyl ester] | 300 | 300 | 400 | 400 ± 10 | 300 | 43.2 | 46.8 | – | – | – | – | – | – | –
9 | CCNC(=O)CC[C@@H](NC(=O)c1cc2cc(Cl)cc(Cl)c2oc1=O)C(=O)OCC [Compound Ig, (R)-2-(6,8-dichloro-2-oxo-2H-benzopyran-3-carboxamido)-5-ethylamino-5-oxo-pentanoic ethyl ester] | 46 | 36 | 110 | 93 | 36 | 65.7 | 76.9 | < 70 | < 100 | < 65 | 63%*(A549)- | 68%*(MCF7) | 66%*(MDA-MB231) | 64%*(SMMC7721);
